From publication PMC10303059, “Chloroquine and Hydroxychloroquine, as Proteasome Inhibitors, Upregulate the Expression and Activity of Organic Anion Transporter 3” (Pharmaceutics, 2023)

Tested on: T1, 20S proteasome
T1 construct: gene PSMB5; endogenous proteasome of COS-7 cells expressing OAT3; with Proteasome subunit beta type-6; Proteasome subunit beta type-7; Proteasome subunit beta type-1; Proteasome subunit beta type-2; Proteasome subunit beta type-3; Proteasome subunit beta type-4; Proteasome subunit alpha type-1; Proteasome subunit alpha type-2; Proteasome subunit alpha type-3; Proteasome subunit alpha type-4; Proteasome subunit alpha type-5; Proteasome subunit alpha type-6; Proteasome subunit alpha type-7
Assay: […] proteasome assay kit (fluorescence) after treatment of intact cells
Format: cell-based
Details: OAT3-expressing COS-7 cells treated 4 h; range over 10-100 µM; direct binding not shown

CCN(CCO)CCCC(C)Nc1ccnc2cc(Cl)ccc12 (stereo not shown) [Hydroxychloroquine]
% inhibition at 10-100 μM: 23–61%
